Experimental data taken from patent US12653809B2, “Urea, amide, and substituted heteroaryl compounds for CBL-B inhibition” (Nurix Therapeutics, Inc., priority 2019, dated 2026).
Read-outs that look alike come from different tables or passages of the source.

Molecular target: T1, Cbl-b (truncated variant, UniProt number Q13191) (Homo sapiens, UniProt Q13191)
T1 construct: made in house
Assay: Cbl-b activity assay (TR-FRET, interaction of Cbl-b with UbcH5B-Ub)
Assay type: biochemical

[1] = high conditions: 100 mM NaCl, 60 nM Src kinase, 12 nM Cbl-b, read-out: Cbl-b activity IC50
[2] = Biological Example 1A, low or high conditions not stated, read-out: IC50 values in the Cbl-b inhibition assay of Biological Example 1A

T1 sequence (Q13191 36-427): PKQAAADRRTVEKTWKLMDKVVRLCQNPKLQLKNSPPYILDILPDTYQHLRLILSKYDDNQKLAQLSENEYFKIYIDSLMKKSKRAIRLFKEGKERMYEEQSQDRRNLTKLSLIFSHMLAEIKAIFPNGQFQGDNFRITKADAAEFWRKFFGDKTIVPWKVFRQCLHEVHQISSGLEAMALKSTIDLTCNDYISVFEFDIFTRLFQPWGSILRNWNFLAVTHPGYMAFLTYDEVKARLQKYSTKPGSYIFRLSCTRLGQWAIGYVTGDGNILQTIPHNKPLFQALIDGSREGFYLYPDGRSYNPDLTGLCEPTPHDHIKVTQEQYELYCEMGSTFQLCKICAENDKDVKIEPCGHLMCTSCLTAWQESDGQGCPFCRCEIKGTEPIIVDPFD

Which IC50 [1] does the source give for `CC1CN(C(=O)Nc2cccc([C@H](C)Sc3nncn3C)c2)CC(=O)N1C` (stereo partly drawn) [Example 123, 3,4-dimethyl-N-(3-((S)-1-((4-methyl-4H-1,2,4-triazol-3-yl)thio)ethyl)phenyl)-5-oxopiperazine-1-carboxamide] here?
The IC50 was ≥ 5 µM.

`CC(Sc1nncn1C)c1cccc(C(=O)Nc2ccccn2)c1` (centres unmarked) [Example 34, 3-(1-((4-methyl-4H-1,2,4-triazol-3-yl)thio)ethyl)-N-(pyridin-2-yl)benzamide] was tested. Which IC50 (low conditions: 50 mM NaCl, 30 nM Src kinase, 12 nM Cbl-b, read-out: Cbl-b activity IC50) did it give?
The IC50 was ≥ 5 µM.

With `Cn1cnnc1[C@@H]1C[C@@H]1c1cccc(NC(=O)N2CCOc3cccnc32)c1` [Example 25, N-(3-((1S,2R)-2-(4-methyl-4H-1,2,4-triazol-3-yl)cyclopropyl)phenyl)-2,3-dihydro-4H-pyrido[3,2-b][1,4]oxazine-4-carboxamide] as the molecule, how does the IC50 [1] read?
The IC50 was 0.1 to 1 µM.

How did the IC50 [1] turn out when `C[C@H](Cc1nncn1C)c1cccc(-c2n[nH]c3cc(C4CCC4)cnc23)c1` [Example 120, (R)-6-cyclobutyl-3-(3-(1-(4-methyl-4H-1,2,4-triazol-3-yl)propan-2-yl)phenyl)-1H-pyrazolo[4,3-b]pyridine] was run?
The IC50 was 1 to 5 µM.

`C[C@@H](Sc1nncn1C)c1cccc(-n2ncc(-c3ccccc3)n2)c1` [Example 100, (R)-2-(3-(1-((4-methyl-4H-1,2,4-triazol-3-yl)thio)ethyl)phenyl)-4-phenyl-2H-1,2,3-triazole] was tested. Which IC50 [2] did it give?
The IC50 was ≥ 5 µM.

What about the IC50 [1] of the same molecule?
The IC50 was ≥ 5 µM.

Which results are given for `COc1ccc(-c2cnn(-c3cccc([C@H](C)Sc4nncn4C)c3)n2)cc1` [Example 74, (S)-4-(4-methoxyphenyl)-2-(3-(1-((4-methyl-4H-1,2,4-triazol-3-yl)thio)ethyl)phenyl)-2H-1,2,3-triazole]?
IC50 [2]: 0.1 to 1 µM; IC50 [1]: 0.1 to 1 µM

What does the source list for `C[C@@H](Sc1nncn1C)c1cccc(-c2n[nH]c3ccccc23)c1` [Example 108, (R)-3-(3-(1-((4-methyl-4H-1,2,4-triazol-3-yl)thio)ethyl)phenyl)-1H-indazole]?
IC50 [2]: 1 to 5 µM; IC50 [1]: 1 to 5 µM

`C[C@H](Cc1nncn1C)c1cccc(-c2cc(-c3ccccn3)n[nH]2)c1` [Example 105, (R)-2-(5-(3-(1-(4-methyl-4H-1,2,4-triazol-3-yl)propan-2-yl)phenyl)-1H-pyrazol-3-yl)pyridine] was tested. Which IC50 [1] did it give?
Its IC50 is 0.1 to 1 µM.

How did the IC50 [1] turn out when `Cc1cccc(-c2cc(-c3cccc([C@H](C)Sc4nncn4C)c3)on2)c1` [Example 56, 4-methyl-3-[[(1S)-1-[3-[3-(3-methylphenyl)-1,2-oxazol-5-yl]phenyl]ethyl]sulfanyl]-4H-1,2,4-triazole] was run?
Its IC50 is 1 to 5 µM.

With `C[C@H](Sc1nncn1C)c1cccc(NC(=O)N2CCC2c2ccccc2)c1` (stereo partly drawn) [Example 142, N-(3-((S)-1-((4-methyl-4H-1,2,4-triazol-3-yl)thio)ethyl)phenyl)-2-phenylazetidine-1-carboxamide] as the molecule, how does the IC50 [1] read?
The IC50 was ≥ 5 µM.

What does the source list for `C[C@H](Sc1nncn1C)c1cccc(-n2ncc(-c3ccc(C(N)=O)cc3)n2)c1` [Example 86, (S)-4-(2-(3-(1-(4-methyl-4H-1,2,4-triazol-3-ylthio)ethyl)phenyl)-2H-1,2,3-triazol-4-yl)benzamide]?
IC50 [2]: 1 to 5 µM; IC50 [1]: 1 to 5 µM

What does the source list for `C[C@H](Sc1nncn1C)c1cccc(-c2cc(-c3ccc(C(=O)O)cc3)no2)c1` [Example 63, 4-(5-{3-[(1S)-1-[(4-methyl-4H-1,2,4-triazol-3-yl)sulfanyl]ethyl]phenyl}-1,2-oxazol-3-yl)benzoic acid]?
IC50 [2]: ≥ 5 µM; IC50 [1]: ≥ 5 µM

Which results are given for `C[C@H](Sc1nncn1C)c1cccc(NC(=O)Nc2cccc(C(F)(F)F)n2)c1` [Example 3, (S)-1-(3-(1-((4-methyl-4H-1,2,4-triazol-3-yl)thio)ethyl)phenyl)-3-(6-(trifluoromethyl)pyridin-2-yl)urea]?
IC50 [2]: 0.1 to 1 µM; IC50 [1]: 0.1 to 1 µM

Which IC50 [1] does the source give for `Cn1cnnc1CC1(c2cccc(NC(=O)N3CC4(CNC4)Oc4cccnc43)c2)COC1` [Example 27, N-(3-(3-((4-methyl-4H-1,2,4-triazol-3-yl)methyl)oxetan-3-yl)phenyl)spiro[azetidine-3,2′-pyrido[3,2-b][1,4]oxazine]-4′(3′H)-carboxamide] here?
The IC50 was < 0.1 µM.

How did the IC50 [1] turn out when `C[C@H](Sc1nncn1C)c1cccc(NC(=O)Nc2ccc(N3CCOCC3=O)cc2)c1` [Example 147, (S)-1-(3-(1-(4-methyl-4H-1,2,4-triazol-3-ylthio)ethyl)phenyl)-3-(4-(3-oxomorpholino)phenyl)urea] was run?
Its IC50 is ≥ 5 µM.

Which IC50 [2] does the source give for `C[C@@H](Sc1nncn1C)c1cccc(-c2cc(-c3ccccc3)no2)c1` [Example 68, (R)-5-(3-(1-((4-methyl-4H-1,2,4-triazol-3-yl)thio)ethyl)phenyl)-3-phenylisoxazole] here?
Its IC50 is ≥ 5 µM.

What about the IC50 [1] of the same molecule?
Its IC50 is ≥ 5 µM.

How did the IC50 [1] turn out when `CC(CO)N(C)C(=O)Nc1cccc([C@H](C)Sc2nncn2C)c1` (stereo partly drawn) [Example 143, 1-(1-hydroxypropan-2-yl)-1-methyl-3-(3-((S)-1-((4-methyl-4H-1,2,4-triazol-3-yl)thio)ethyl)phenyl)urea] was run?
The IC50 was ≥ 5 µM.

`C[C@H](Sc1nncn1C)c1cccc(NC(=O)N2CCc3nocc3C2)c1` [Example 125, (S)—N-(3-(1-((4-methyl-4H-1,2,4-triazol-3-yl)thio)ethyl)phenyl)-6,7-dihydroisoxazolo[4,3-c]pyridine-5(4H)-carboxamide] was tested. Which IC50 [1] did it give?
The IC50 was ≥ 5 µM.

`C[C@H](Sc1nncn1C)c1cccc(NC(=O)N2CC3(CCC3O)C2)c1` (stereo partly drawn) [Example 133, 5-hydroxy-N-(3-((S)-1-((4-methyl-4H-1,2,4-triazol-3-yl)thio)ethyl)phenyl)-2-azaspiro[3.3]heptane-2-carboxamide] was tested. Which IC50 [1] did it give?
The IC50 was ≥ 5 µM.

How did the IC50 [2] turn out when `Cc1cccc2c1CN(C(=O)Nc1cccc([C@H](C)Cc3nncn3C)c1)C2` [Example 13, (R)-4-methyl-N-(3-(1-(4-methyl-4H-1,2,4-triazol-3-yl)propan-2-yl)phenyl)isoindoline-2-carboxamide] was run?
The IC50 was 0.1 to 1 µM.

And the IC50 [1]?
Its IC50 is 0.1 to 1 µM.

`CNC(=O)c1ccc(-c2cn(-c3cccc([C@H](C)Sc4nncn4C)c3)nn2)cc1` [Example 83, (S)—N-methyl-4-(1-(3-(1-(4-methyl-4H-1,2,4-triazol-3-ylthio)ethyl)phenyl)-1H-1,2,3-triazol-4-yl)benzamide] was tested. Which IC50 [2] did it give?
Its IC50 is ≥ 5 µM.

What about the IC50 [1] of the same molecule?
Its IC50 is ≥ 5 µM.

Which IC50 [1] does the source give for `C[C@H](Sc1nncn1C)c1ccnc(NC(=O)Nc2ccccn2)c1` [Example 121, (S)-1-(4-(1-((4-methyl-4H-1,2,4-triazol-3-yl)thio)ethyl)pyridin-2-yl)-3-(pyridin-2-yl)urea] here?
Its IC50 is ≥ 5 µM.

How did the IC50 [1] turn out when `C[C@H](Sc1nncn1C)c1cccc(-n2cc(-c3cccc(Cl)c3)nn2)c1` [Example 79, 4-(3-chlorophenyl)-1-{3-[(1S)-1-[(4-methyl-4H-1,2,4-triazol-3-yl)sulfanyl]ethyl]phenyl}-1H-1,2,3-triazole] was run?
Its IC50 is 1 to 5 µM.

How did the IC50 [1] turn out when `Cn1cnnc1[C@H]1C[C@H]1c1cccc(NC(=O)N2CCOc3cccnc32)c1` [Example 166, N-(3-((1R,2S)-2-(4-methyl-4H-1,2,4-triazol-3-yl)cyclopropyl)phenyl)-2,3-dihydro-4H-pyrido[3,2-b][1,4]oxazine-4-carboxamide] was run?
The IC50 was ≥ 5 µM.

With `CC1CN(C(=O)Nc2cccc([C@H](C)Sc3nncn3C)c2)CC1CO` (stereo partly drawn) [Example 54, 3-(hydroxymethyl)-4-methyl-N-(3-((S)-1-((4-methyl-4H-1,2,4-triazol-3-yl)thio)ethyl)phenyl)pyrrolidine-1-carboxamide] as the molecule, how does the IC50 [1] read?
Its IC50 is ≥ 5 µM.

Which IC50 [1] does the source give for `C[C@H](Sc1nncn1C)c1cccc(NC(=O)NC2CCCCC2)c1` [Example 161, (S)-1-cyclohexyl-3-(3-(1-((4-methyl-4H-1,2,4-triazol-3-yl)thio)ethyl)phenyl)urea] here?
Its IC50 is ≥ 5 µM.
